Consider one compound from patent US20250269043A1, “TARGETED BIFUNCTIONAL DEGRADERS” (YALE UNIVERSITY, priority 2019, published 2025).

The series can be described thus: Tolerability in mice (body weight, serum AST and ALT). It counts as in vivo. As for the experimental part: FIGS. 93A-93C illustrate that DNP-GN3 and DNP-OH3 are not toxic to mice at all tested concentrations. FIG. 93A: mouse body weight following treatment with DNP-GN3 or DNP-OH3. Statistical differences were analyzed by T test. FIG. 93B: levels of aspartate transaminase (AST) in treated mice. Dashed lines represent the normal range. FIG. 93C: levels of alanine transaminase (ALT) in treated mice. Dashed lines represent the normal range.

As for `CC(=O)NC1C(OCCOCCOCCNC(=O)CCOCC(COCCC(=O)NCCOCCOCCOC2OC(CO)C(O)C(O)C2NC(C)=O)(COCCC(=O)NCCOCCOCCOC2OC(CO)C(O)C(O)C2NC(C)=O)NC(=O)CNC(=O)COCCOCCOCCNc2ccc([N+](=O)[O-])cc2[N+](=O)[O-])OC(CO)C(O)C1O` (centres unmarked) [DNP-GN3], under “doses up to 100 mpk, FIGS. 93A-93C”, the “differences in body weight or serum liver enzyme levels between control and treatment groups” value is reported as “no significant differences”. Further, the well-tolerated dose (mice) is recorded as not above 100 mpk.
